For 44 compounds, GI50 results are on record in patent US20240174611A1 (Rappta Therapeutics Oy, priority 2021, published 2024).

The subject of the first assay is LNCaP cells. Put plainly: LNCaP cell viability assay (MTS). The assay is classed as cell-based. To be noted: Homo sapiens, LNCaP, 48 h, LNCaP cell line, 48 hours treatment. As to the method:
LNCaP cell line was used for the cell viability assay. LNCaP cells were plated in 96-well plates at a density of 5000 cells per well. After 24 hours of plating, the cells were treated with increasing doses of compound 1-100 ranging from 1 μM to 80 μM. Relative cell numbers were analyzed after 48 hours using 3-(4,5-dimethylthiazol-2-yl)-5-(3-carboxymethoxyphenyl)-2-(4-sulfophenyl)-2H-tetrazolium (MTS) assay (Promega) according to the manufacturer's instructions.
The cell viability data was analyzed with GraphPad Prism software. The values were log transformed and analyzed with non-linear regression (curve-fit) using log(inhibitor) vs. response—variable slope (four parameters) and constraining the bottom to equal zero. Unless otherwise indicated, the GI50 values provided in Table 35 correspond to the LNCaP cell viability assays.
As a reminder, the GI50 is the concentration at which growth is held to half of that of the control. High values mean lower sensitivity of the cells, low ones greater sensitivity of the cells. Regarding `COC(=O)[C@@H]1Cc2ccccc2[C@@H]1NS(=O)(=O)c1ccc(OC(F)(F)F)cc1` (racemic) [Compound 4], the GI50 came out at 40.4 µM.
On the same count and under the same terms, the value for `CN1CC[C@@H](NS(=O)(=O)c2ccc(OC(F)(F)F)cc2)[C@@H]1c1ccc(Cl)cc1` (racemic) [Compound 9] was 51.5 µM; that for `CC(C)(C)OC(=O)N1CCC([C@@H]2C[C@H]2NS(=O)(=O)c2ccc(OC(F)(F)F)cc2)CC1` (racemic) [Compound 24] was 16 µM; that for `CC(C)C1N(Cc2ccccc2)CC12C[C@@H](O)[C@H](NS(=O)(=O)c1ccc(OC(F)(F)F)cc1)C2` (mixture of isomers) [Compound 31] was 45 µM.
Still for that read-out and setting: the figure for `O=S(=O)(N[C@@H]1CCN(C2CC2)[C@H]1c1ccc(F)c(F)c1)c1ccc(OC(F)(F)F)cc1` (racemic) [Compound 34] is 33 µM; for `O=S(=O)(N[C@@H]1C[C@H]1c1ccc(Cl)cc1)c1ccc(OC(F)(F)F)cc1` (racemic) [Compound 42, rac N-((1R,2S)-2-(4-chlorophenyl)cyclopropyl)-4-(trifluoromethoxy)benzenesulfonamide] it is 67.2 µM; for `O=S(=O)(N[C@@H]1CNC[C@@H]1c1ccc(Cl)c(Cl)c1)c1ccc(OC(F)(F)F)cc1` (racemic) [Compound 51, rac N-((3R,4R)-4-(3,4-dichlorophenyl)pyrrolidin-3-yl)-4-(trifluoromethoxy)benzenesulfonamide] it is 10.4 µM.
The compound `O=S(=O)(N[C@@]1(c2ccc(Cl)cc2)CNC[C@@H]1F)c1ccc(OC(F)(F)F)cc1` (racemic) [Compound 79, N-((3S,4S)-3-(4-chlorophenyl)-4-fluoropyrrolidin-3-yl)-4-(trifluoromethoxy)benzenesulfonamide] had a GI50 of 55.8 µM.
Still for that read-out and setting: the value for `O=S(=O)(NC1CCCC1c1ccc(Cl)c(Cl)c1)c1ccc(OC(F)(F)F)cc1` (single isomer, unassigned) [Compound 43, N-(2-(3,4-dichlorophenyl)cyclopentyl)-4-(trifluoromethoxy)benzenesulfonamide] was 37.5 µM; that for `CC(C)(C)N1CCC(NS(=O)(=O)c2ccc(OC(F)(F)F)cc2)C1c1ccc(Cl)c(F)c1` (single isomer, unassigned; enantiomer 1) [Compound 37, trans N-(1-(tert-butyl)-2-(4-chloro-3-fluorophenyl)pyrrolidin-3-yl)-4-(trifluoromethoxy)benzene-sulfonamide enantiomer 1] was 16 µM.
Still for that read-out and setting: the value for `CC(=O)Nc1ccc(S(=O)(=O)N2CCC(NS(=O)(=O)c3ccc(OC(F)(F)F)cc3)CC2)cc1` [Compound 1] was 38.1 µM.
Same read-out and setting: the figure for `COc1ccc(Cl)cc1N1CCC(NS(=O)(=O)c2ccc(OC(F)(F)F)cc2)C1` (centres unmarked) [Compound 2, N-(1-(5-chloro-2-methoxyphenyl)pyrrolidin-3-yl)-4-(trifluoromethoxy)benzene-sulfonamide] is 67.4 µM; for `O=S(=O)(NC1CCN(c2cccc(Br)c2)C1)c1ccc(OC(F)(F)F)cc1` (centres unmarked) [Compound 3] it is 77.1 µM.
With `O=S(=O)(NC1CCCN(c2ccc(Cl)c(Cl)c2)C1)c1ccc(OC(F)(F)F)cc1` (centres unmarked) [Compound 5, N-(1-(3,4-dichlorophenyl)piperidin-3-yl)-4-(trifluoromethoxy)benzene-sulfonamide], growth was halved (GI50) at 52.8 µM.
Compound `O=S(=O)(NC1CCN(c2cccc(OC(F)(F)F)c2)C1)c1ccc(OC(F)(F)F)cc1` (centres unmarked) [Compound 6] came in with a GI50 of 59.3 µM.
In turn, `O=S(=O)(NC1CCCCC1Oc1ccc(F)cc1)c1ccc(OC(F)(F)F)cc1` (centres unmarked) [Compound 7, N-(2-(4-fluorophenoxy)cyclohexyl)-4-(trifluoromethoxy)benzene-sulfonamide] had a GI50 of 65.9 µM.
On the same count and under the same terms, the figure for `CC1CC(NS(=O)(=O)c2ccc(OC(F)(F)F)cc2)CCC1(C)C` (centres unmarked) [Compound 8, 4-(trifluoromethoxy)-N-(3,4,4-trimethylcyclohexyl)benzene-sulfonamide] is 73.3 µM; for `O=S(=O)(NC1CCOc2c(F)ccc(F)c21)c1ccc(OC(F)(F)F)cc1` (centres unmarked) [Compound 10, N-(5,8-difluorochroman-4-yl)-4-(trifluoromethoxy)benzene-sulfonamide] it is 67.5 µM.
Regarding `O=S(=O)(NC1CCc2c(Cl)cc(Cl)cc21)c1ccc(OC(F)(F)F)cc1` (centres unmarked) [Compound 11, N-(4,6-dichloro-2,3-dihydro-1H-inden-1-yl)-4-(trifluoromethoxy)benzene-sulfonamide], it took 44.2 µM to inhibit growth by half (GI50).
Same read-out and setting: the value for `O=S(=O)(NC1CCCc2cc(Cl)ccc21)c1ccc(OC(F)(F)F)cc1` (centres unmarked) [Compound 12, N-(6-chloro-1,2,3,4-tetrahydronaphthalen-1-yl)-4-(trifluoromethoxy)benzene-sulfonamide] was 49 µM; that for `O=S(=O)(NC1CCCCCC1c1ccccc1)c1ccc(OC(F)(F)F)cc1` (centres unmarked) [Compound 13, N-(2-phenylcycloheptyl)-4-(trifluoromethoxy)benzene-sulfonamide] was 55.6 µM.
Same read-out and setting: the figure for `O=S(=O)(NC1(c2cccc(Cl)c2)CCCC1)c1ccc(OC(F)(F)F)cc1` [Compound 14, N-(1-(3-chlorophenyl)cyclopentyl)-4-(trifluoromethoxy)benzene-sulfonamide] is 42.8 µM.
On the same count and under the same terms, the value for `COc1cccc(C2(NS(=O)(=O)c3ccc(OC(F)(F)F)cc3)CCCC2)c1` [Compound 15] was 49.2 µM; that for `O=C1C(NS(=O)(=O)c2ccc(OC(F)(F)F)cc2)CCCN1Cc1cccc(C(F)(F)F)c1` (centres unmarked) [Compound 16] was 34.4 µM.
Turning to `CCC(C(=O)N1CCC(NS(=O)(=O)c2ccc(OC(F)(F)F)cc2)CC1)c1ccccc1` (centres unmarked) [Compound 17, N-(1-(2-phenylbutanoyl)piperidin-4-yl)-4-(trifluoromethoxy)benzene-sulfonamide], the GI50 was 58 µM.
The same measure, in the same setting: the figure for `O=S(=O)(NC1CC2(CCCC2)Oc2ccccc21)c1ccc(OC(F)(F)F)cc1` (centres unmarked) [Compound 18, N-(spiro[chromane-2,1′-cyclopentan]-4-yl)-4-(trifluoromethoxy)benzene-sulfonamide] is 37.4 µM; for `COC(=O)C#CC1(NS(=O)(=O)c2ccc(OC(F)(F)F)cc2)CCCC1` [Compound 19] it is 43 µM; for `CCOC(=O)C1(NS(=O)(=O)c2ccc(OC(F)(F)F)cc2)CCc2ccccc21` (centres unmarked) [Compound 20] it is 60 µM.
Still for that read-out and setting: the value for `COC(=O)C12CC3(C)CC(C)(CC(NS(=O)(=O)c4ccc(OC(F)(F)F)cc4)(C3)C1)C2` [Compound 21] was 30 µM; that for `O=S(=O)(NC1CCC2CN(Cc3ccccc3)CC21)c1ccc(OC(F)(F)F)cc1` (centres unmarked) [Compound 22] was 70 µM.
On the same count and under the same terms, the figure for `CC(C)(C)OC(=O)N1CCCC1C1(NS(=O)(=O)c2ccc(OC(F)(F)F)cc2)CC1` (centres unmarked) [Compound 23] is 26 µM; for `O=C1CCC(NS(=O)(=O)c2ccc(OC(F)(F)F)cc2)c2ccc(OC(F)F)cc21` (centres unmarked) [Compound 25, N-(6-(difluoromethoxy)-4-oxo-1,2,3,4-tetrahydronaphthalen-1-yl)-4-(trifluoromethoxy)benzene-sulfonamide] it is 30 µM.
In turn, `O=S(=O)(NC1Cc2[nH]ncc2C(C(F)(F)F)C1)c1ccc(OC(F)(F)F)cc1` (centres unmarked) [Compound 26] came in with a GI50 of 53 µM.
`CC1(C)C[C@H](NS(=O)(=O)c2ccc(OC(F)(F)F)cc2)c2cc(F)ccc2O1` [Compound 27, (S)-N-(6-fluoro-2,2-dimethylchroman-4-yl)-4-(trifluoromethoxy)benzene-sulfonamide] displayed a GI50 of 12 µM.
Same read-out and setting: the figure for `CCC1CC1(NS(=O)(=O)c1ccc(OC(F)(F)F)cc1)c1cccc(C)c1` (centres unmarked) [Compound 28, N-(2-ethyl-1-(m-tolyl)cyclopropyl)-4-(trifluoromethoxy)benzene-sulfonamide] is 62 µM; for `COc1ccc(C2(NS(=O)(=O)c3ccc(OC(F)(F)F)cc3)CCOCC2)cc1F` [Compound 29, N-(4-(3-fluoro-4-methoxyphenyl)tetrahydro-2H-pyran-4-yl)-4-(trifluoromethoxy)benzene-sulfonamide] it is 39 µM; for `CCOc1cc(CN2CCC(NS(=O)(=O)c3ccc(OC(F)(F)F)cc3)CC2)ccc1O` [Compound 30, N-(1-(3-ethoxy-4-hydroxybenzyl)piperidin-4-yl)-4-(trifluoromethoxy)benzene-sulfonamide] it is 30 µM.
The same measure, in the same setting: the value for `CC(C)(C)OC(=O)N1CCC(CF)(NS(=O)(=O)c2ccc(OC(F)(F)F)cc2)C1` (centres unmarked) [Compound 32] was 30 µM; that for `Cc1noc(C)c1S(=O)(=O)NCC1(NS(=O)(=O)c2ccc(OC(F)(F)F)cc2)CCCCC1` [Compound 33] was 53 µM.
In turn, `O=S(=O)(NC1(c2ccccc2)CCN(Cc2ccccc2)C1)c1ccc(OC(F)(F)F)cc1` (centres unmarked) [Compound 35, N-(1-benzyl-3-phenylpyrrolidin-3-yl)-4-(trifluoromethoxy)benzene-sulfonamide] had a GI50 of 38.7 µM.
As for `O=S(=O)(NC1(c2ccccc2)CCNC1)c1ccc(OC(F)(F)F)cc1` (centres unmarked) [Compound 36, N-(3-phenylpyrrolidin-3-yl)-4-(trifluoromethoxy)benzene-sulfonamide], growth was halved (GI50) at 41.9 µM.
On the same count and under the same terms, the figure for `O=S(=O)(NC1(c2ccc(Cl)cc2)CCNC1)c1ccc(OC(F)(F)F)cc1` (centres unmarked) [Compound 39, N-(3-(4-chlorophenyl)pyrrolidin-3-yl)-4-(trifluoromethoxy)benzene-sulfonamide] is 14 µM.
Still for that read-out and setting: the value for `O=C(OCc1ccccc1)N1CCC(NS(=O)(=O)c2ccc(OC(F)(F)F)cc2)(c2ccc(Cl)c(Cl)c2)C1` (centres unmarked) [Compound 40] was 25.5 µM.

The same assay, now with this note: LNCaP cell line, 48 hours treatment.
Compound `O=S(=O)(NC1CCCC1c1ccc(Cl)c(Cl)c1)c1ccc(OC(F)(F)F)cc1` (single isomer, unassigned) [Compound 44, N-(2-(3,4-dichlorophenyl)cyclopentyl)-4-(trifluoromethoxy)benzenesulfonamide] displayed a GI50 of 45.4 µM.
